Experimental data from ChEMBL document CHEMBL1201862, “PubChem BioAssay data set” (2004).
Values belong to the compound of their own block, whether it stands above or below them. Calls of active or inactive are those of the source.

Experiments:
Cytochrome P450 2C19 = Cytochrome P450 2C19 (Homo sapiens, UniProt P33261); test: Cytochrome panel assay with activity outcomes. Panel member name: p450-cyp2c19 Compounds with AC50 equal or less than 10 uM are considered active; format: functional
[1] = biological target: T1, Heat shock factor protein 1 (Mus musculus, UniProt P38532); test: inhibition of MG132-induced HSE-luciferase signal, confirmation, cell-based, NIH3T3, luminescence, dose retest (AID 2382); format: functional;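 further: NIH3T3 fibroblasts with HSF1-driven luciferase reporter stressed by proteasome inhibitor MG132; luminescence from HSF1-driven luciferase expression after 8 hours of MG132 stress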
T1 sequence (P38532 whole entry): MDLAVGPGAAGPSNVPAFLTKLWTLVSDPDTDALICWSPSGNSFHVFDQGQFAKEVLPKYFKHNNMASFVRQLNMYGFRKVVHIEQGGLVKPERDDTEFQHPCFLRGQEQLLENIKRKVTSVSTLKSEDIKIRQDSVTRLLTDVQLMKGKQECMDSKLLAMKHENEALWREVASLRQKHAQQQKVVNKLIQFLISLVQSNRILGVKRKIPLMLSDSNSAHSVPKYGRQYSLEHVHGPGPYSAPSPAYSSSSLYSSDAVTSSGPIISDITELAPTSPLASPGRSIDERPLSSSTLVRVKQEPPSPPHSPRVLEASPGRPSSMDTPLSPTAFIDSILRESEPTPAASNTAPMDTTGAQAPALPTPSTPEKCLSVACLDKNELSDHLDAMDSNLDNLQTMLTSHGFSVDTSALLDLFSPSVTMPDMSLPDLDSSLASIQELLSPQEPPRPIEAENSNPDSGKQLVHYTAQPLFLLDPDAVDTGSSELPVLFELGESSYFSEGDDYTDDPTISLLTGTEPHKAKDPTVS

[2] = inhibitors of intracellular T. cruzi replication, confirmation, NIH3T3 host cells, beta-gal luminescence (AID 2044); format: functional, cell-based;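 further: intracellular parasites grown in NIH/3T3 mouse fibroblasts as host cells; luminescent beta-galactosidase reporter signal from transgenic T. cruzi replicating inside host cells; inhibitors lower the luminescence signal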
[3] = cytotoxicity toward NIH3T3 fibroblasts, dose response, counter-screen, cell-based, ATP luminescence, mouse fibroblasts (AID 2010); format: functional;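 further: cells exposed to compound for about 90 hours before reading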
Cytochrome P450 3A4 = Cytochrome P450 3A4 (Homo sapiens, UniProt P08684);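 further: CYP3A4 tested as one member of a cytochrome P450 panel screen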
Sequence of Cytochrome P450 3A4 (P08684 whole entry): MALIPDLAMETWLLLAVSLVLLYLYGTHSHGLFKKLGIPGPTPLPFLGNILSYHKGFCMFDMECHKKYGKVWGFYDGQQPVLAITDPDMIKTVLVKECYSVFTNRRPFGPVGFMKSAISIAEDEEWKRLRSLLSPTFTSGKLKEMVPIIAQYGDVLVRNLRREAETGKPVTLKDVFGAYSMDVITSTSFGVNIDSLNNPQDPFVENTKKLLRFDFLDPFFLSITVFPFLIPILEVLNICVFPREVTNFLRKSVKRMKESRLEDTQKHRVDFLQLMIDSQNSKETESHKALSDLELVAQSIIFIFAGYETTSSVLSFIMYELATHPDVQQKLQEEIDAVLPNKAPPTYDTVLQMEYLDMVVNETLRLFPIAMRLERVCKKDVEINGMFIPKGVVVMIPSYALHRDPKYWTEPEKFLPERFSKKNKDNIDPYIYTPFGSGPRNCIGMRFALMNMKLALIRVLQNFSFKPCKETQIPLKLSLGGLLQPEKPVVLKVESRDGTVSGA

Cytochrome P450 2C9 = Cytochrome P450 2C9 (Homo sapiens, UniProt P11712)
Sequence of Cytochrome P450 2C9 (P11712 whole entry): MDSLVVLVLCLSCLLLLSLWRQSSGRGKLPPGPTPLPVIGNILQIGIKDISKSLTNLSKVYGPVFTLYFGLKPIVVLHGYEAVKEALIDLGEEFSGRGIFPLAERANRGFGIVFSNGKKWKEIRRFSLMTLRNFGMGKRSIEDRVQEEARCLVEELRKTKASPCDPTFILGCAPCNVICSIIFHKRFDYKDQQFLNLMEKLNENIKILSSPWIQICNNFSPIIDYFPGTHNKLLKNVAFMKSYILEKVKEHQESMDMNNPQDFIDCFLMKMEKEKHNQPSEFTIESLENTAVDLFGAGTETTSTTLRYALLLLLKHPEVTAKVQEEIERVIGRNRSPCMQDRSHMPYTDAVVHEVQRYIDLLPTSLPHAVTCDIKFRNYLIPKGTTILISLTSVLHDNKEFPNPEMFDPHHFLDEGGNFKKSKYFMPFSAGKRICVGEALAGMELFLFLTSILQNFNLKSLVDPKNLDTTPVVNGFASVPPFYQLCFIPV

Cytochrome P450 2D6 = Cytochrome P450 2D6 (Homo sapiens, UniProt P10635);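 further: CYP2D6 member of a cytochrome P450 panel assay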
Sequence of Cytochrome P450 2D6 (P10635 whole entry): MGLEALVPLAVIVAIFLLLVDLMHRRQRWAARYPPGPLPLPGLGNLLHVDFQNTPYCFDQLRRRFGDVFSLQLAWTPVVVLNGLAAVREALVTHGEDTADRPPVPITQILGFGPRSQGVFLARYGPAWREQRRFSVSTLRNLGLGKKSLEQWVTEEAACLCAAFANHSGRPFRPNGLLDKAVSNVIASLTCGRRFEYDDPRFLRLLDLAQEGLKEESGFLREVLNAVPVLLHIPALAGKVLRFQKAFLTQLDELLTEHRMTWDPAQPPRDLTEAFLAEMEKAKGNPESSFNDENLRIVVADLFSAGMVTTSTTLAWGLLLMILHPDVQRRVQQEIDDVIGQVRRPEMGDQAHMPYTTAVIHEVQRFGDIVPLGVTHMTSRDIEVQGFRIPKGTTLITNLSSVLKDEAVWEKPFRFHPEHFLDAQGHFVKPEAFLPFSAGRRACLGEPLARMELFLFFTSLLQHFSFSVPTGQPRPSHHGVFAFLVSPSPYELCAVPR

Sequence of Cytochrome P450 2C19 (P33261 whole entry): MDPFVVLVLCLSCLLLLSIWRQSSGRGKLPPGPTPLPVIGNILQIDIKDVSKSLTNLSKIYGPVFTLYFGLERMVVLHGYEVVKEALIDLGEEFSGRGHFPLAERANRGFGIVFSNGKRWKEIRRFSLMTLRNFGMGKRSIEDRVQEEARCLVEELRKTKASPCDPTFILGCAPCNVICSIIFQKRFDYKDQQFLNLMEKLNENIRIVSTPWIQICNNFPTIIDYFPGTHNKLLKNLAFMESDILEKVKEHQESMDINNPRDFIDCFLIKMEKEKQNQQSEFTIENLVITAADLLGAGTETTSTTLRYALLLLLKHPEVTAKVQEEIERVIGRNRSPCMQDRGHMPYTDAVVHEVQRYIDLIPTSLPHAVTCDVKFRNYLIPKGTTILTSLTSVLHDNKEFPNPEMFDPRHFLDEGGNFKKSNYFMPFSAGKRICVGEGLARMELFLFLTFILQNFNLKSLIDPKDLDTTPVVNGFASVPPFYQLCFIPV

SMILES: CCCc1cc2c(n1CCO)C(C)C1CN(C(=O)c3ccccc3)C(C)(C(=O)OC)C21 (stereo not given)
AC50 (Cytochrome P450 2C19; read-out: AC50): 3.16 µM (inconclusive)

EC50 [1]: > 195 µM (not active)
SMILES: CCc1ccc(NC(=O)CSc2ccc(-c3cccnc3)nn2)cc1

EC50 [1]: > 195 µM (not active)
SMILES: O=C(COC(=O)c1cnccn1)Nc1ccc(Cl)cn1

AC50 (Cytochrome P450 2C19): inconclusive
SMILES: CC(=O)SCC[N+](C)(C)C [ACETYLTHIOCHOLINE]

SMILES: Clc1ccc(OCCn2ccnc2)cc1Cl
EC50 [2]: 2.49 µM (active)
EC50 [3]: > 60 µM (not active)

EC50 [1]: > 195 µM (not active)
SMILES: COc1ccccc1NC(=O)C1CCN(C(=O)C2CC(=O)N(c3ccc(C)cc3)C2)CC1 (stereo not given)

SMILES: CCN1CCCc2cc(CN(CCN3CCOCC3)C(S)=Nc3ccccc3OC)ccc21
EC50 [2]: 1.53 µM (active)
EC50 [3]: > 60 µM (not active)

AC50 (Cytochrome P450 3A4): 31.6 µM (inconclusive)
AC50 (Cytochrome P450 2C9): 25.1 µM (inconclusive)
SMILES: COn1c(-c2ccccc2)nc2c1CCc1nonc1-2

SMILES: N#Cc1ccccc1NC(=O)c1ccccc1OCC(=O)Nc1ccc2c(c1)oc1ccccc12
EC50 [2]: 2.85 µM (active)
EC50 [3]: 47.3 µM (active)

SMILES: COc1ccccc1CN1CCCC(N2CCN(c3ccc(F)cc3)CC2)C1 (stereo not given)
EC50 [2]: 0.253 µM (active)
EC50 [3]: 10.1 µM (active)

SMILES: Cc1c(C)n(CCCN(C)C)c2ncnc(NC3CCCCC3)c12
EC50 [2]: 0.603 µM (active)
EC50 [3]: > 60 µM (not active)

AC50 (Cytochrome P450 2C19; read-out: AC50): 39.8 µM (inconclusive)
AC50 (Cytochrome P450 2C9): 15.8 µM (inconclusive)
SMILES: Cn1c(=O)c(-c2ccccc2)nc2cnc(N3CCNCC3)nc21

AC50 (Cytochrome P450 2D6): 22.4 µM (inconclusive)
AC50 (Cytochrome P450 3A4): 20 µM (inconclusive)
SMILES: CC1(c2ccccc2)NC(=O)N(CC(=O)NCCC2=CCCCC2)C1=O (stereo not given)

EC50 [1]: > 195 µM (not active)
SMILES: N#CC1=C(N)N(c2ccc(Oc3ccccc3)cc2)C(=O)C1

SMILES: CCOc1ccccc1CN1CCN(Cc2nc3ccccc3s2)CC1CCO (stereo not given)
EC50 [2]: 1.16 µM (active)
EC50 [3]: > 60 µM (not active)

SMILES: CCOP(=O)(OCC)C(NC(=O)C(Cl)Cl)C(Cl)(Cl)Cl (stereo not given)
AC50 (Cytochrome P450 3A4): 31.6 µM (inconclusive)
AC50 (Cytochrome P450 2C9): 39.8 µM (inconclusive)

EC50 [1]: > 195 µM (not active)
SMILES: O=C(c1ccco1)N1CCN(S(=O)(=O)/C=C/c2ccccc2)CC1

AC50 (Cytochrome P450 3A4): 15.8 µM (inconclusive)
SMILES: CC(C)NC(=O)N1CC[C@@]2(CCCN(C(=O)c3csnn3)C2)C1

EC50 [1]: > 195 µM (not active)
SMILES: Cc1ccc(C(=O)Nc2ccccc2C(=O)O)cc1S(=O)(=O)NCc1ccccc1

EC50 [1]: > 195 µM (not active)
SMILES: COCCN(C(=O)COC(=O)/C=C/c1ccc(C(F)(F)F)cc1)c1c(N)n(Cc2ccccc2)c(=O)[nH]c1=O

SMILES: CCCn1c(NC(=O)c2ccc(F)cc2)nc2ccccc21
EC50 [2]: 3 µM (active)
EC50 [3]: > 60 µM (not active)

SMILES: CN1CCN(c2ccc(S(=O)(=O)N3CCCCC3)cc2NC(=O)CSCc2ccccc2)CC1
EC50 [2]: 0.315 µM (active)
EC50 [3]: > 60 µM (not active)

AC50 (Cytochrome P450 2C19; read-out: AC50): 2.82 µM (inconclusive)
AC50 (Cytochrome P450 2C9): 2.51 µM (inconclusive)
SMILES: CCOc1ccc(OCC)c(NC(=O)C2CCCN(S(=O)(=O)c3cccs3)C2)c1 (stereo not given)

AC50 (Cytochrome P450 2C9): 5.01 µM (inconclusive)
SMILES: O=S(=O)(NCCCCCCc1ccccc1)c1cccc2c(Cl)cccc12

AC50 (Cytochrome P450 3A4): 3.98 µM (inconclusive)
SMILES: CC(=O)O[C@H]1C2=CO[C@H](C)[C@H]3C4C5=C([C@@H](O[C@H]4C)[C@@]23C(=O)[C@H]2O[C@@H]21)[C@H](O)[C@H]1O[C@@H]1C5=O

AC50 (Cytochrome P450 2C9): 11.2 µM (inconclusive)
SMILES: Cc1ccc(CNC(=O)C2CCCN2C(=O)NCc2ccccc2)cc1 (stereo not given)

AC50 (Cytochrome P450 2C19; read-out: AC50): 22.4 µM (inconclusive)
AC50 (Cytochrome P450 3A4): 25.1 µM (inconclusive)
SMILES: CCN(CC)C(=O)CSc1nnc(CNc2ccc(F)cc2)o1

SMILES: CC(=O)OCC1=C(C(=O)O)N2C(=O)[C@@H](NC(=O)CCC[C@@H](N)C(=O)O)[C@@H]2SC1
AC50 (Cytochrome P450 2C9): 39.8 µM (inconclusive)

EC50 [1]: > 195 µM (not active)
SMILES: CC(=O)Nc1ccc(OS(=O)(=O)c2ccccc2C)cc1

AC50 (Cytochrome P450 2D6): 7.94 µM (inconclusive)
SMILES: CN1CCN(C(c2ccccc2)c2ccccc2)CC1 [CYCLIZINE]

AC50 (Cytochrome P450 3A4): 25.1 µM (inconclusive)
SMILES: COCCn1c(=O)c(-c2ccc(OC)cc2)nc2cnc(OCc3ccccc3)nc21

AC50 (Cytochrome P450 2C9): 39.8 µM (inconclusive)
SMILES: O=C(c1cnccn1)N1CCC2(CCCN(c3ccccc3)C2)CC1

AC50 (Cytochrome P450 2D6): 39.8 µM (inconclusive)
AC50 (Cytochrome P450 2C9): 1.26 µM (inconclusive)
SMILES: CN(C)c1ncnc2ccc(-c3cccnc3)cc12

EC50 [1]: > 195 µM (not active)
SMILES: Cc1cc([N+](=O)[O-])nn1CC(=O)NCc1nc2ccccc2[nH]1

AC50 (Cytochrome P450 2D6): 7.08 µM (inconclusive)
SMILES: CCCCCCCCC(=O)N/N=C/c1cccc(Br)c1
